Assay results from patent US5366982A (priority 1990, dated 1994).
Like-named read-outs stand apart in the source and are kept apart here.

Tests used:
leukotriene B4 receptors = leukotriene B4 receptors (Cavia porcellus, UniProt H0VYV8); assay: biochemical; assay type: binding, guinea-pig; conditions: for IC50: Table XIX, guinea-pig spleen membranes, tritium-labelled LTB4, read-out: IC50 Binding (Cheng); for inhibition at 10 µM: read-out: Binding (Cheng) % Inhibition at 10 μM
[1] = test system: guinea-pig pulmonary parenchyma; assay: L. Parenchyma: guinea-pig pulmonary parenchyma contraction antagonism induced by LTB4 (Sirois); assay type: cell-based; conditions: read-out: IC50 L. Parenchyma
Description: Further, compounds of this invention are shown to be leukotriene B4 antagonists in the technique of guinea-pig pulmonary parenchyma contraction antagonism induced by LTB4 described by P. Sirois et al., Pharmacology, 31, 225-236 (1985). In this technique, products are active at concentrations of between about 1 to about 10,000 nM.

[2] = Cavia porcellus, Table XIX, guinea-pig pulmonary parenchyma contraction induced by LTB4

leukotriene B4 receptors, sequence (H0VYV8 1-348): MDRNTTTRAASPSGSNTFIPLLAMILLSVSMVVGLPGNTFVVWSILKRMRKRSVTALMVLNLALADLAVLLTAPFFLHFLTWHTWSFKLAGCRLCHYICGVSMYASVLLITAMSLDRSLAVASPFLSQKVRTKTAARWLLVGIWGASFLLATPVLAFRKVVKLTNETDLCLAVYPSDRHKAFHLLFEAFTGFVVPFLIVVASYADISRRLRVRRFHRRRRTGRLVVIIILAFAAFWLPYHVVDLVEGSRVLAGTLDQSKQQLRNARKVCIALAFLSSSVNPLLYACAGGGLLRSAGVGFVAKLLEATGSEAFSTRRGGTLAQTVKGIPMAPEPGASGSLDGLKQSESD

`O=C(O)CCCCCOc1cc(-c2ccccc2)cc(-c2ccccc2Cl)n1` was tested, and the IC50 (leukotriene B4 receptors) was 1.8 nM and the IC50 ([1]; Cavia porcellus) was 200 nM.
“6-[(6-cyclopropyl-5-phenyl-2-pyridyl)oxy]-2,2-dimethylhexanoic acid” showed an IC50 (leukotriene B4 receptors) of 4 nM and an IC50 ([1]; Table XIX, guinea-pig pulmonary parenchyma contraction induced by LTB4) of 200 nM.
Molecule `CC(C)(CCCCOc1cc(-c2ccccc2)cc(-c2ccccc2)n1)C(=O)O` [2,2-dimethyl-6-[(4,6-diphenyl-2-pyridyl)oxy]hexanoic acid] has an IC50 [1, 2] of 10 nM.
For `CC(C)(CCCCOc1cc(-c2ccc3c(c2)OCO3)cc(-c2ccccc2)n1)C(=O)O` [2,2-dimethyl-6-{[4-(3,4-methylenedioxyphenyl)-6-phenyl-2-pyridyl]oxy}hexanoic acid], the IC50 [1, 2] was 140 nM.
`CC(C)(CCCCOc1cc(-c2cccc(Cl)c2)cc(-c2ccccc2)n1)C(=O)O` [2,2-dimethyl-6-{[4-(3-chlorophenyl)-6-phenyl-2-pyridyl]oxy}hexanoic acid] was tested, and the IC50 (leukotriene B4 receptors) was 13 nM and the IC50 [1, 2] was 1000 nM.
`COc1cccc(-c2cc(OCCCCC(C)(C)C(=O)O)nc(-c3ccccc3)c2)c1` [2,2-dimethyl-6-{[4-(3-methoxyphenyl)-6-phenyl-2-pyridyl]oxy}hexanoic acid] showed an IC50 (leukotriene B4 receptors) of 2 nM and an IC50 [1, 2] of 30 nM.
With `CC(C)(CCCCOc1cc(-c2ccc(N)cc2)cc(-c2ccccc2)n1)C(=O)O` [2,2-dimethyl-6-{[4-(4-aminophenyl)-6-phenyl-2-pyridyl]oxy}hexanoic acid] the IC50 (leukotriene B4 receptors) was 10 nM and the IC50 [1, 2] was 1 nM.
In the case of `CC(C)(CCCCOc1cc(-c2ccc(F)cc2)cc(-c2ccccc2)n1)C(=O)O` [2,2-dimethyl-6-{[4-(4-fluorophenyl)-6-phenyl-2-pyridyl]oxy}hexanoic acid], the IC50 (leukotriene B4 receptors) is reported as 7 nM and the IC50 [1, 2] is reported as 300 nM.
With `COc1ccc(-c2cc(OCCCCC(C)(C)C(=O)O)nc(-c3ccccc3)c2)cc1` [2,2-dimethyl-6-{[4-(4-methoxyphenyl)-6-phenyl-2-pyridyl]oxy}hexanoic acid] the IC50 (leukotriene B4 receptors) was 50 nM and the IC50 [1, 2] was 170 nM.
Molecule `CC(C)(CCCCOc1cc(-c2ccccc2)cc(-c2cccs2)n1)C(=O)O` [2,2-dimethyl-6-{[4-phenyl-6-(2-thienyl)-2-pyridyl]oxy}hexanoic acid] has an IC50 (leukotriene B4 receptors) of 15 nM and an IC50 [1, 2] of 1000 nM.
`CC(C)(CCCCOc1cc(-c2ccccc2)cc(-c2ccsc2)n1)C(=O)O` [2,2-dimethyl-6-{[4-phenyl-6-(3-thienyl)-2-pyridyl]oxy}hexanoic acid] gave an IC50 (leukotriene B4 receptors) of 5 nM and an IC50 [1, 2] of 100 nM.
With `CC(C)(CCCCOc1cc(-c2ccccc2)cc(-c2ccccc2F)n1)C(=O)O` [2,2-dimethyl-6-{[6-(2-fluorophenyl)-4-phenyl-2-pyridyl]oxy}hexanoic acid] the IC50 (leukotriene B4 receptors) was 5 nM and the IC50 [1, 2] was 80 nM.
Work on `CC(C)(CCCCCOc1cc(-c2ccccc2)cc(-c2ccccc2)n1)C(=O)O` [2,2-dimethyl-7-[(4,6-diphenyl-2-pyridyl)oxy]heptanoic acid] yielded an IC50 [1, 2] of 30 nM.
`CCC(C)(CCCCOc1cc(-c2ccccc2)cc(-c2ccccc2)n1)C(=O)O` (stereo not drawn) [2-ethyl-2-methyl-6-[(4,6-diphenyl-2-pyridyl)oxy]hexanoic acid] gave an IC50 (leukotriene B4 receptors) of 17 nM and an IC50 [1, 2] of 30 nM.
`CCC(CCCCOc1cc(-c2ccccc2)cc(-c2ccccc2)n1)C(=O)O` (stereo not drawn) [2-ethyl-6-[(4,6-diphenyl-2-pyridyl)oxy]hexanoic acid] gave an IC50 (leukotriene B4 receptors) of 3 nM and an IC50 [1, 2] of 70 nM.
For `CC(CCCCOc1cc(-c2ccccc2)cc(-c2ccccc2)n1)C(=O)O` (stereo not drawn) [2-methyl-6-[(4,6-diphenyl-2-pyridyl)oxy]hexanoic acid], the IC50 (leukotriene B4 receptors) was 4 nM and the IC50 [1, 2] was 10 nM.
In the case of `CC(CCCCOc1cc(-c2ccc3c(c2)OCO3)cc(-c2ccccc2)n1)C(=O)O` (stereo not drawn) [2-methyl-6-{[4-(3,4-methylenedioxyphenyl)-6-phenyl-2-pyridyl]oxy}hexanoic acid], the IC50 (leukotriene B4 receptors) is reported as 7 nM and the IC50 [1, 2] is reported as 2.5 nM.
For `CC(CCCCOc1cc(-c2cccc(Cl)c2)cc(-c2ccccc2)n1)C(=O)O` (stereo not drawn) [2-methyl-6-{[4-(3-chlorophenyl)-6-phenyl-2-pyridyl]oxy}hexanoic acid], the IC50 [1, 2] was 1000 nM.
With `COc1cccc(-c2cc(OCCCCC(C)C(=O)O)nc(-c3ccccc3)c2)c1` (stereo not drawn) [2-methyl-6-{[4-(3-methoxyphenyl)-6-phenyl-2-pyridyl]oxy}hexanoic acid] the IC50 [1, 2] was 20 nM.
Molecule `CC(CCCCOc1cc(-c2ccc(N)cc2)cc(-c2ccccc2)n1)C(=O)O` (stereo not drawn) [2-methyl-6-{[4-(4-aminophenyl)-6-phenyl-2-pyridyl]oxy}hexanoic acid] has an IC50 [1, 2] of 20 nM.
In the case of `CC(CCCCOc1cc(-c2ccc(Cl)cc2)cc(-c2ccccc2)n1)C(=O)O` (stereo not drawn) [2-methyl-6-{[4-(4-chlorophenyl)-6-phenyl-2-pyridyl]oxy}hexanoic acid], the IC50 [1, 2] is reported as 70 nM.
`CC(CCCCOc1cc(-c2ccc(F)cc2)cc(-c2ccccc2)n1)C(=O)O` (stereo not drawn) [2-methyl-6-{[4-(4-fluorophenyl)-6-phenyl-2-pyridyl]oxy}hexanoic acid] gave an IC50 (leukotriene B4 receptors) of 1.7 nM and an IC50 [1, 2] of 60 nM.
For `COc1ccc(-c2cc(OCCCCC(C)C(=O)O)nc(-c3ccccc3)c2)cc1` (stereo not drawn) [2-methyl-6-{[4-(4-methoxyphenyl)-6-phenyl-2-pyridyl]oxy}hexanoic acid], the IC50 [1, 2] was 20 nM.
In the case of `Cc1ccc(-c2cc(OCCCCC(C)C(=O)O)nc(-c3ccccc3)c2)cc1` (stereo not drawn) [2-methyl-6-{[4-(4-methylphenyl)-6-phenyl-2-pyridyl]oxy}hexanoic acid], the IC50 [1, 2] is reported as 20 nM.
`c1ccc(-c2cc(OCCCCCc3nn[nH]n3)nc(-c3ccccc3)c2)cc1` [5-{[5-(4,6-diphenyl-2-pyridyl)oxy]pentyl}-[1H]-tetrazole] was tested, and the IC50 [1, 2] was 10 nM.
`O=C(O)CCCCCOc1cc(-c2ccccc2F)cc(-c2ccccc2)n1` [6-{[4-(2-fluorophenyl)-6-phenyl-2-pyridyl]oxy}hexanoic acid] showed an IC50 [1, 2] of 1700 nM.
`Nc1ccc(-c2cc(OCCCCCC(=O)O)nc(-c3ccccc3)c2)cc1` [6-{[4-(4-aminophenyl)-6-phenyl-2-pyridyl]oxy}hexanoic acid] was tested, and the IC50 [1, 2] was 40 nM.
`CN(C)c1ccc(-c2cc(OCCCCCC(=O)O)nc(-c3ccccc3)c2)cc1` [6-{[4-(4-dimethylaminophenyl)-6-phenyl-2-pyridyl]oxy}hexanoic acid] was tested, and the IC50 [1, 2] was 6000 nM.
`CNc1ccc(-c2cc(OCCCCCC(=O)O)nc(-c3ccccc3)c2)cc1` [6-{[4-(4-methylaminophenyl)-6-phenyl-2-pyridyl]oxy}hexanoic acid] was tested, and the IC50 [1, 2] was 150 nM.
In the case of `O=C(O)CCCCC=Cc1cc(-c2ccccc2)c2ccccc2n1` [7-(4-phenyl-2-quinolyl)-6-hepten-1-oic acid], the inhibition at 10 µM (leukotriene B4 receptors) is reported as 27%.
For `O=C(O)CCCCCCOc1cc(-c2ccccc2)c2ccccc2n1` [7-[(4-phenyl-2-quinolyl)oxy]heptanoic acid], the IC50 (leukotriene B4 receptors) was 1800 nM.
Work on `O=C(O)CCCCCCCOc1ncc(-c2ccccc2)c(-c2ccccc2)n1` [8-(4,5-diphenyl-2-pyrimidyloxy)octanoic acid] yielded an IC50 (leukotriene B4 receptors) of 8500 nM.
`COc1ccc(-c2ccc(OCCCCCCCC(=O)O)nc2-c2ccc(OC)cc2)cc1` [8-{[5,6-bis-(4-methoxyphenyl)-2-pyridyl]oxy}octanoic acid] gave an IC50 (leukotriene B4 receptors) of 3000 nM.
For `O=C(O)CNC(=O)CCCOc1cc(-c2ccccc2)cc(-c2ccccc2)n1` [N-[4-(4,6-diphenyl-2-pyridyloxy)butanoyl]glycine], the IC50 (leukotriene B4 receptors) was 16 nM.
For `CCOC(=O)CCCCCOc1cc(-c2ccccc2)cc(-c2ccc(Cl)cc2)n1` [ethyl 6-{[6-(4-chlorophenyl)-4-phenyl-2-pyridyl]oxy}hexanoate], the IC50 (leukotriene B4 receptors) was 5000 nM.
Molecule `O=C(O)CCCCCCCSc1cc(-c2ccccc2)c2ccccc2n1` [sodium 8-[(4-phenyl-2-quinolyl)thio]octanoate] has an inhibition at 10 µM (leukotriene B4 receptors) of 31%.
